Data from US7847070B2, “LUCA2 and antibodies that bind thereto” (Raven biotechnologies, inc., priority 2005, dated 2010).

System: Hs700T human pancreatic adenocarcinoma cells
Test: Subcutaneous model of human pancreatic adenocarcinoma
Assay type: in vivo, NCR.nu/nu homozygous mice
Conditions: 5FU 35 mg/kg intraperitoneally, once weekly for 4 treatments
Protocol: This study was designed to test the dose-responsive anti-tumor data for an anti-LUCA2 antibody in a subcutaneous model of pancreatic cancer. Fluorouracil (5FU), a cytotoxic chemotherapy agent, was used as a positive control and tested to see if there was a cumulative effect with mu-anti-LUCA2 and 5FU.
Cultured Hs700T human pancreatic adenocarcinoma cells were trypsinized, washed in media, spun down and resuspended in media at 100 million cells per milliliter of media (5 million cells per 0.05 mL volume), then mixed in an equal volume of Matrigel® for a final injection volume of 0.1 mL. 72 NCR.nu/nu homozygous mice were dosed intraperitoneally during the study. The groups were (1) saline control at 0.2 mL, twice weekly for 10 treatments (2) mu-anti-LUCA2 antibody at 50 mg/kg, twice weekly for 10 treatments, (3) Fluorouracil (5FU) at 35 mg/kg, once weekly for 4 treatments, and (4) mu-anti-LUCA2 antibody at 50 mg/kg and 5FU at 35 mg/kg, twice weekly for 10 treatments.
Tumor growth over time was evaluated to determine anti-tumor activity. Tumors were palpable prior to initiation of therapy. Animals responding to antibody treatment were maintained after treatment cessation to determine time to tumor regrowth.

For `O=c1[nH]cc(F)c(=O)[nH]1` [5FU, Fluorouracil], the “tumor volume inhibition compared to saline control” value was “approximately 21.5%”.
